Laboratory results as given in US6069156A, “Indole derivatives as cGMP-PDE inhibitors” (Fujisawa Pharmaceutical Co., Ltd., priority 1995, dated 2000).

Experiments:
[1] = tested on: aorta (spirally cut strips); assay: Smooth Muscle Relaxant: noradrenaline-contracted rat aorta strips; parameters: species or system male Wistar rats; conditions: contraction by noradrenaline 1 μM, 37° C.
Experimental: The aorta were carefully removed from male Wistar rats, cleaned of fat and extraneous tissue. Spirally cut strips of the aorta were placed in a 25 ml organ bath containing Tyrode solution of the following composition (mM); NaCl, 137; KCl, 2.7; CaCl2, 1.8; NaH2 PO4, 0.4; NaHCO3, 12.0; MgSO4, 1.1; glucose, 5.6. The bath was maintained at 37° C. and bubbled with 95% O2 and 5% CO2. The spirally cut strip was stretched to a resting force of 1.0 g, and the isometric contraction was recorded via a force development transducer on an ink writing recorder. Tissues were equilibrated for 60 minutes before contraction was induced by noradrenaline (NA, 1 μM). The test compounds were cumulatively added to organ bath in increasing concentrations ranging from 10^-8 to 10^-5 M, after maximum stable constriction to NA had been achieved.

[2] = tested on: Coronary vasospasm induced with vasopressin; assay: Vasopressin Induced-vasospasm Model (ST segment depression); format: in vivo, Male Donryu rats; conditions: 10 mg/kg orally 30 minutes before vasopressin 0.2 iu/kg
Experimental: Vasopressin Induced-vasospasm Model
Male Donryu rats, weighing 160-200 g, were anesthetized intraperitoneally with sodium pentobarbital (60 mg/kg) 15 minutes before intravenous administration of vasopressin, and the femoral vein was cannulated with polyethylene tubing (diameter 0.8 mm). Coronary vasospasm was induced with vasopressin (0.2 iu/kg) dissolved in saline through the cannula in the femoral vein. The each test compound (10 mg/kg) was administered orally 30 minutes before the administration of vasopressin. The standard limb lead II of the electrocardiogram was recorded with an electrocardiograph. The depression of ST segment was measured as the difference in the amplitudes of the ST segment after and just before the administration of vasopressin. The amplitudes of ST segment were measured at intervals of 0.5 minutes for 5 minutes after administration of vasopressin.

FK506 nephritis = assay: FK506 Nephritis Model (a); format: in vivo, Spontaneously hypertensive rats; conditions: orally twice a day for two weeks; FK506 18 mg/kg daily for 1 week
Experimental: (a) Spontaneously hypertensive rats weighing 250-300 g were used. FK506 dissolved in olive-oil containing 5% ethanol was given orally to the animals in a daily dose 18 mg/kg for 1 week. After the last dosing of FK506, 24-hours urine was collected for urinalysis. Blood was withdrawn from the abdominal aorta under ether anesthesia 24 hours after the last dosing of FK506, and plasma was separated by centrifugation for biochemical analysis.
The each test compound was dissolved in PEG 400 and given orally by the volume of 1 ml/kg twice a day for two weeks.
Biochemistry and urinalysis: Urine volume, plasma creatinine, urine creatinine, blood urea nitrogen, plasma sodium, urine sodium, plasma potassium and urine potassium, were measured with an autoanalyzer (TBA-20R Toshiba, OM-6020 Daiichi Kagaku).

CCCc1c(C(=O)C(C)C)c2ccc(C(N)=O)cc2n1Cc1ccccc1Cl [Example 6, 1-(2-chlorobenzyl)-3-isobutyryl-2-propylindole-6-carboxamide]
IC50 [1]: < 100 nM | inhibiting activity (depression of ST segment) [2]: more than 50% | recovery in a measure of creatinine clearance (ml/kg/min) (FK506 nephritis): more than 45% | recovery in urinary sodium excretion (FK506 nephritis): more than 50%
